Assay: Human HepG2 cell viability assay in 384 well format
Type: toxicity, cell-based
Parameters: dose 125 nL, time 70.5 hour; concentration not given beside the values
Settings: HepG2 cells, read-out: Inhibition

| SMILES | cytotoxicity at 70.5 h [%] |
| --- | --- |
| Cc1cccc(C(=O)N2CCC(C(=O)c3cc(F)ccc3F)CC2)n1 | -7.52 |
| O=C(NCCc1ccn(-c2ccccc2)n1)N1CCCC(O)C1 (centres undefined) | 1.8 |
| Cc1cnn(CC2CCCCN2C(=O)c2ccc3[nH]cnc3c2)c1 (centres undefined) | 8.11 |
| O=C(CNCCn1cccn1)NCC1(c2ccccc2)CCC1 | 1.86 |
| O=C(CCCc1cccs1)N1CCC(N2CCNC2=O)CC1 | 22.1 |
| CCc1csc(C2CCCN(C(=O)c3ccc4[nH]nnc4c3)C2)n1 (centres undefined) | -0.976 |
| O=C(CCc1cccs1)N1CCCC(N2CCNC2=O)C1 (centres undefined) | -5.71 |
| CCc1nc(C2CCCN(C(=O)c3ccc(OC)cc3)C2)no1 (centres undefined) | 0.812 |
| CCn1c(C)nnc1CN(C)C1CCN(CCCSC)C1 (centres undefined) | 26.5 |
| CC(=O)N(Cc1ncc(C)o1)C1CCN(Cc2sc(C)nc2C)C1 (centres undefined) | -3.28 |
| CCCc1n[nH]c(C2CN(C(=O)c3ccnc(C4CC4)n3)CCO2)n1 (centres undefined) | -1.45 |
| CCCc1nc(CNCC2CCCN2c2cccnn2)no1 (centres undefined) | 22.6 |
| CCc1noc(CNCC2CCCN2c2cccnn2)n1 (centres undefined) | 1.91 |
| CCc1nc(C2CCCN(C(=O)CC3CCOCC3)C2)no1 (centres undefined) | -8.83 |
| CS(=O)(=O)NC1CCCN(C(=O)NCc2ccoc2)C1 (centres undefined) | 0.0228 |
| CS(=O)(=O)NC1CCCN(C(=O)NCc2cccc(F)c2)C1 (centres undefined) | -4.51 |
| Cc1ccc(C(CNC(=O)Nc2cn[nH]c2)N2CCOCC2)o1 (centres undefined) | -1.26 |
| CS(=O)(=O)NC1CCN(C(=O)NCc2cccnc2)CC1 | 2.6 |
| COc1ccnc(N2CCN(C(=O)Cc3ccsc3)CC2)n1 | -8.71 |
| Cc1nnc(C2Cc3ccccc3CN2Cc2c(C)noc2C)o1 (centres undefined) | -1.11 |
| CCc1nc(C2CCCN(C(=O)NC3CC3)C2)no1 (centres undefined) | -0.741 |

| SMILES | cytotoxicity at 70.5 h [%] |
| --- | --- |
| Cc1ncc(C(=O)NC2CCc3nccn3C2)c(C(C)C)n1 (centres undefined) | -3.83 |
| CCc1n[nH]c(C2CN(C(=O)c3ccnc(C4CC4)n3)CCO2)n1 (centres undefined) | -5.63 |
| COc1ccc(CC(=O)N2CCCC2Cn2cc(C)cn2)cc1OC (centres undefined) | -0.349 |
| O=C(CCc1ccccn1)N1CCCN(C(=O)CC2CCCC2)CC1 | 4.27 |
| CC(C)c1ccsc1C(=O)N1CCCN(Cc2cscn2)CC1 | 15.1 |
| Cc1cnn(CCNCC(=O)NCC2(c3ccccc3)CCC2)c1 | 22.8 |
| CCn1c(C)nnc1CN(C)C1CCN(CCc2ccncc2)C1 (centres undefined) | -3.16 |
| O=C(NCCNc1ccc(C(F)(F)F)cn1)c1cncc(Br)c1 | -12.5 |
| CCn1cnnc1CNC(=O)N1CCN(Cc2ccccc2)CC1 | -1.29 |
| CC(CNC(=O)Nc1cn[nH]c1)N1CCOCC1 (centres undefined) | -12.1 |
| Cc1nn(C)c(N2CCOCC2)c1CNCc1ccnc(N(C)C)c1 | -5.34 |
| CS(=O)(=O)NC1CCCN(C(=O)NCc2cccnc2)C1 (centres undefined) | -0.126 |
| Cc1nn(C)c(N2CCOCC2)c1CNCc1ccc(Cl)s1 | -2.69 |
| COc1ccnc(N2CCN(C(=O)Cc3ccc(C#N)cc3)CC2)n1 | -0.995 |
| Cc1nc2c(c(C)c1CC(=O)NCc1cccc(C#N)c1)c(=O)[nH]n2C | -2.99 |
| Cc1nc(C)n(CC2CCCN(Cc3ccc(C(N)=O)cc3)C2)n1 (centres undefined) | -4.6 |
| COc1ccccc1OCCC(=O)N1CCCC1Cn1cc(C)cn1 (centres undefined) | -6.74 |
| O=C(CCc1nccs1)N1CCN(c2ncccn2)CC1 | -1.61 |
| Cn1cnnc1C1CCCN(C(=O)c2cnc3ccccc3n2)C1 (centres undefined) | -1.48 |
| COc1c(C2CCCN2C(=O)c2ccc3cc[nH]c3c2)c(C)nn1C (centres undefined) | -2.48 |
| COc1c(C2CCCN2C(=O)c2cccc(C(N)=O)c2)c(C)nn1C (centres undefined) | 18.9 |

| SMILES | cytotoxicity at 70.5 h [%] |
| --- | --- |
| COc1c(C2CCCN2C(=O)c2ccnc(N(C)C)c2)c(C)nn1C (centres undefined) | -6.74 |
| Cc1ncsc1C(=O)N1CCCN(Cc2cscn2)CC1 | -12.1 |
| CC1CN(C(=O)CN(Cc2ccccc2Br)C2CC2)CCO1 (centres undefined) | -0.289 |
| Cc1cc(CN2CCN(C(=O)c3sccc3C(C)C)CC2)no1 | -0.556 |
| c1ccc2oc(CCCN3CCOC(Cn4cccn4)C3)nc2c1 (centres undefined) | 0.524 |
| COc1c(CNCC(c2cccc(F)c2)N(C)C)c(C(C)C)nn1C (centres undefined) | 12.7 |
| CS(=O)(=O)c1ccc(CNC2CCCN(c3cccnn3)C2)cc1 (centres undefined) | -6.92 |
| OCC1CCCN1c1cc(N2CCC(OC3CCCC3)CC2)ncn1 (centres undefined) | -3.18 |
| Cc1noc(C(C)C)c1C(=O)N1CCCN(Cc2cscn2)CC1 | 1.02 |
| Cc1cccc(C)c1NC(=O)CCNC(=O)c1ccoc1 | -3.89 |
| Cc1cccc(C)c1OCCNC(=O)NC(C)c1nncn1C (centres undefined) | 41.6 |
| Cc1ccoc1C(=O)NCC(Cc1ccc(F)cc1)C(N)=O (centres undefined) | -3.51 |
| CCOc1ccc(CC(CNC(=O)c2ccoc2)C(N)=O)cc1 (centres undefined) | 49.1 |
| CCOc1ccc(CC(CNC(=O)c2occc2C)C(N)=O)cc1 (centres undefined) | 6.46 |
| NC(=O)c1ccc(OCC(=O)N2CCCC(n3cccn3)C2)cc1 (centres undefined) | -12 |
| Cc1oc(C)c(C(=O)N2CCCN(Cc3cscn3)CC2)c1C | 5.51 |
| Cc1cc(C)n(C2CCCN(C(=O)c3cnc4onc(C)c4c3)C2)n1 (centres undefined) | -7.95 |
| Cc1nc(C)n(C2CCCN(C(=O)c3cc4ccccc4n3C)C2)n1 (centres undefined) | -1.56 |
| CC(C)c1nnc2n1CCN(C(=O)c1ccc(CN(C)C)cc1)C2 | 3.04 |
| CC(C)c1nccn1C1CCCN(C(=O)c2ccnc(N(C)C)c2)C1 (centres undefined) | -2.47 |
| c1cnnc(N2CCCC(NCc3ccc(-n4ccnc4)cc3)C2)c1 (centres undefined) | -10.5 |

| SMILES | cytotoxicity at 70.5 h [%] |
| --- | --- |
| COc1ccccc1C(=O)N(C)Cc1ncc(C)c(OC)c1C | -6.37 |
| CCn1c(C)cc(C(=O)N2CCCC(c3nc(C)no3)C2)c1C (centres undefined) | -3.95 |
| CN(CC1CN(Cc2cn3ccsc3n2)CCO1)c1cccnn1 (centres undefined) | -2.29 |
| CCc1[nH]ncc1C(=O)N1CCCN(Cc2cnn(C)c2)CC1 | -10.9 |
| CNC(=O)CN1CCC(NC(=O)N(C)Cc2cc(C)on2)CC1 | -10.8 |
| CN(Cc1cccs1)C(=O)CS(=O)(=O)Cc1ccc(Cl)c(Cl)c1 | 26.3 |
| CC(OCC(F)(F)F)C(=O)Nc1ccc(-n2cncn2)nc1 (centres undefined) | -12.6 |
| CCc1nnc(CN2CCN(C(=O)c3ccccn3)CC2)o1 | -21.8 |
| CN(Cc1ccccc1F)C(=O)CS(=O)(=O)Cc1ccc(Cl)c(Cl)c1 | -19 |
| CNS(=O)(=O)c1ccc(CNC(=O)NCC2CCOC2)cc1 (centres undefined) | -31.2 |
| Cc1cc(CN(C)C(=O)NC2CCS(=O)(=O)C2)no1 (centres undefined) | -15.8 |
| CC(C)C(=O)NCc1cccc(N2CCCCC2=O)c1 | -12.2 |
| Cn1cnnc1C1CCCN(C(=O)NCCc2ccccc2F)C1 (centres undefined) | -11.6 |
| c1coc(-c2noc(CN3CC(n4cccn4)C3)n2)c1 | -7.3 |
| CCn1cnnc1C1CCN(C(=O)COc2ccccc2)CC1 | -9.36 |
| Cc1oc(-c2ccco2)nc1CC(=O)N1CCN(C2CCC2)CC1 | -1.12 |
| Cc1noc(C2CCCN(C(=O)c3ccc(Br)cc3F)C2)n1 (centres undefined) | -7.35 |
| Cc1nc(C(=O)N2CCC(Nc3cccnn3)CC2)cs1 | 28.6 |
| Cc1nnc(N2CCC(CN(C)C(C)C)CC2)c(C#N)c1C | 20.7 |
| CC(C)c1nc(CN2CCCCC2)cs1 | -4.92 |
| CCc1ccc(OCC(O)CN2CCN(CCO)CC2)cc1 (centres undefined) | -3.3 |
